Assay results: article PMC9724248, “Anticancer peptide Q7 suppresses the growth and migration of human endometrial cancer by inhibiting DHCR24 expression and modulating the AKT-mediated pathway” (International Journal of Medical Sciences, 2022)
Read-outs that look alike come from different tables or passages of the source. Where no end group is shown, it is not given here.

Key:
Format in all cases: cell-based, human
HUVEC = details: MTT, 48 h, mean ± SD, ND: no detection, read-out: IC50 (50% decrease of cell viability)
Method: (§1) Cells were seeded into 96-well tissue culture plates at a concentration of 1×10^4 cells/200 μl/well overnight. Subsequently, the cells were treated with serial dilutions of ACP, scrambled ACP, or non-ACP. After 48 h of incubation, the cell viability of each line was determined by the MTT colorimetric assay (Sigma-Aldrich).

HEC-1-A cells [1] = assay: MTT cytotoxicity of anticancer peptides
Method: as §1

HEC-1-A cells [2] = assay: Wound healing assay (Culture-Insert); details: peptides 50 µM, 24 h
Method: HEC-1-A cells (3×10^4 cells/70 μl/well) were seeded into a Culture-Insert 2 well (Ibidi, Munich, Germany) overnight. Afterward, inserts were removed, peptides (50 µM) were added, the status of the scratch wounds was monitored using an inverted microscope at 0 h (removal of Culture-Insert) and 24 h, and representative images were collected. The results were presented as the percentage of wound closure, calculated as follows: [wound area (initial) - wound area (final)]/wound area (initial)×100. The wound area was measured using software image J.

AKT = assay: Western blot of AKT phosphorylation; details: HEC-1-A, 100 µM, 6 h (Fig. S3)
Method: The cells were lysed on ice with 100 μl of lysis buffer and centrifuged at 13,000 g for 20 min at 4 °C. The lysate proteins were quantified using BCA Protein Assay Reagent. Each sample load comprised 30 μg total proteins per lane and was resolved by 12.5% SDS-PAGE. After being transferred onto the PVDF membranes, the membranes were blocked with 5% skimmed dried milk for 1 h and incubated overnight with primary antibodies, including anti-DHCR24, anti-AKT, anti-pAKT, anti-p-GSK3beta, anti-mTOR, and anti-p-mTOR (dilution: 1:1,000; Thermo); anti-S6K1, anti-p-p53, anti-cyclin D1, and anti-cleaved caspase 3 (dilution: 1:500; Thermo); anti-pS6K1 (dilution: 1:2,000; Thermo); anti-p53 and anti-GSK3beta (dilution: 1:200; Thermo); anti-BAX (dilution: 1:2,000; Thermo); anti-p-FoxO3A, anti-HIF-1α, and anti-actin (dilution: 1:1,500; GeneTex Inc., Irvine, CA, USA). The membrane was then washed and incubated with anti-rabbit IgG secondary antibodies followed by horseradish peroxidase. The protein expressions were visualized with an ECL kit (Pierce, Rockford, IL, USA) according to the manufacturer's instructions. Actin acted as the loading control.
Figure S3. Q7 repressed the phosphorylation of AKT-kinase.
After 6 h incubation of Q7 (100 µM), sQ7 and nACP, the AKT protein expression of
HEC-1-A cells was detected by using western blotting.
(1 picture or pasted object on this page, not shown here)

[3] = HEC-1-A, MTT, 48 h, mean ± SD, read-out: IC50 (50% decrease of cell viability)

Row | Molecule | IC50 (HUVEC) [µM] | IC50 (HEC-1-A cells [1]; [3]) [µM] | also measured
1 | CSCC[C@H](N)C(=O)N[C@@H](CCC(=O)O)C(=O)N[C@@H](Cc1ccccc1)C(=O)N[C@H](C(=O)N[C@@H](C)C(=O)N[C@@H](CCCCN)C(=O)N[C@@H](CC(C)C)C(=O)N[C@@H](Cc1ccccc1)C(=O)N[C@@H](CCCCN)C(=O)N[C@@H](Cc1ccccc1)C(=O)N[C@@H](Cc1ccccc1)C(=O)N[C@@H](CCCCN)C(=O)N[C@@H](CC(=O)O)C(=O)N[C@@H](CC(C)C)C(=O)N[C@@H](CC(C)C)C(=O)NCC(=O)N[C@@H](CCCCN)C(=O)N[C@@H](Cc1ccccc1)C(=O)N[C@@H](CC(C)C)C(=O)NCC(=O)N[C@@H](CC(N)=O)C(=O)N[C@@H](CC(N)=O)C(=O)O)C(C)C [ACP NO. 3] | 9.72 ± 0.84 | 8.78 ± 0.77 | –
2 | EQQQQQQPQNRRFRE [Q7] | – | – | IC50 (HEC-1-A cells [1]; 48 h): 130 ± 7.53 µM
3 | FKGGGPYGQGVTRGQDLSGKDF [ACP NO. 1] | 29.1 ± 1.72 | 27.5 ± 2.5 | –
4 | GLLGVLGSVAKHVLPHVVPVIAEHL [ACP NO. 8] | 26.1 ± 2.38 | 23.7 ± 2.19 | –
5 | RQPQNQRQEQFQEQR [sQ7, reference compound] | – | – | IC50 (HEC-1-A cells [1]; HEC-1-A, MTT, 0-400 μM, 48 h (Fig. 1A), mean ± SD, read-out: fifty percent of growth inhibition concentration (IC50)): 158 ± 13.9 µM
6 | nACP: non-ACP (nACP), human HSP27_36-50 (PRLPEEWSQWLGGSS; UniProt P04792 36-50, looked up, fragment) | – | – | wound closure rate (HEC-1-A cells [2]): 85%; toxic effects on HEC-1-A cells (HEC-1-A cells [1]; MTT, 48 h, up to 400 μM): not obviously toxic effects; level of phosphorylation of AKT (AKT): no obvious effect
